Reference: patent publication US11300570B2, “Therapeutic and diagnostic methods for cancer” (Genentech, Inc., priority 2016, dated 2022)

Tested on: locally advanced or metastatic NSCLC
Test: OAK Phase III randomized trial, atezolizumab vs docetaxel, in 2L+ NSCLC, efficacy by tTMB
Format: in vivo, human
Settings: for Median OS / Median PFS: 2L+ OAK
Excerpt: Patients were eligible for enrollment in the POPLAR study if they had locally advanced or metastatic (e.g., stage IIIB, stage IV, or recurrent) NSCLC; disease progression during or following treatment with a prior platinum-containing regimen for locally advanced, unresectable/inoperable, or metastatic NSCLC, or disease recurrence within 6 months of treatment with a platinum-based adjuvant/neoadjuvant regimen; measurable disease, as defined by RECIST v1.1; and an ECOG performance status of 0 or 1. Participants were randomized to receive either atezolizumab at a dose of 1200 mg intravenously every three weeks or docetaxel 75 mg per meter square (mg/m^2) intravenously every three weeks. Treatment with atezolizumab could be continued as long as participants were experiencing clinical benefit, i.e., in the absence of unacceptable toxicity or symptomatic deterioration attributed to disease progression. Pre-treatment tumor samples from patients in the Phase III OAK trial (Clinical Trial ID No.: NCT02008227) were also evaluated for tTMB. Patients were eligible for enrollment in the OAK study if they had locally advanced or metastatic (e.g., stage IIIB, stage IV, or recurrent) NSCLC; disease progression during or following treatment with a prior platinum-containing regimen for locally advanced, unresectable/inoperable, or metastatic NSCLC, or disease recurrence within 6 months of treatment with a platinum-based adjuvant/neoadjuvant regimen; measurable disease, as defined by RECIST v1.1; and an ECOG performance status of 0 or 1. Participants were randomized to receive either atezolizumab at a dose of 1200 mg intravenously every three weeks or docetaxel 75 mg per square meter (mg/m^2) intravenously every three weeks. Treatment with atezolizumab could be continued as long as participants were experiencing clinical benefit, i.e., in the absence of unacceptable toxicity or symptomatic deterioration attributed to disease progression.
To identify somatic mutations, tumor samples (e.g., archival tumor samples) were processed as described in Frampton et al. Nat. Biotechnol. 31:1023-31, 2013. Sequencing libraries were constructed to sequence and analyze samples. In addition to standard mutation processing, a mutation load estimation algorithm was applied that, based on the number of somatic mutations and/or rearrangements detected in Table 1 or Table 2, respectively, extrapolates to the exome or the genome as a whole. For purposes of mutation load estimation, all coding short variant alterations, base substitutions, and indels detected in the genes listed in Table 1 and Table 2 were counted. Further, all coding alterations (base substitutions and indels), including synonymous alterations, with the exception of known oncogenic driver mutations, in the genes listed in Table 1 and Table 2 were counted. However, numerous classes of detected alterations were not counted: non-coding alterations; alterations with known (occurring as known somatic alterations in the COSMIC database (Forbes et al. (2014) Nucl. Acids Res. 43:D805-11) and likely (truncations in tumor suppressor genes) functional status; known germline alterations in the dbSNP database (Sherry et al. (2001) Nucleic Acids Res. 29(1):308-11); germline alterations occurring with two or more counts in the ExAC database (Exome Aggregation Consortium (ExAC), Cambridge, Mass.); alterations that are predicted to be germline in the specimen being assessed; and alterations that are predicted to be germline in a cohort of >60,000 clinical specimens. Finally, to calculate the mutation load per megabase, the total number of mutations counted was divided by the coding region target territory of the test, which was 1.110 megabases (Mb) for the current version of the test. The average median coverage value for all samples was 490.
The BEP was defined as patients with at least one tTMB measurement from a baseline tumor sample. […]

[1] = BEP (evaluable for TMB) (n = 174 atezolizumab, 186 docetaxel)
[2] = tTMB score <9 mut/Mb (n = 91 atezolizumab, 87 docetaxel)
[3] = tTMB score <16 mut/Mb (n = 135 atezolizumab, 136 docetaxel)
[4] = tTMB score ≥9 mut/Mb (n = 83 atezolizumab, 99 docetaxel)
[5] = tTMB score ≥16 mut/Mb (n = 39 atezolizumab, 50 docetaxel)

atezolizumab
Median OS [1]: 13.3 months | Median PFS [1]: 2.0 months | Median OS (ITT (n = 425 per arm)): 13.8 months | Median PFS (ITT (n = 425 per arm)): 2.0 months | Median OS [2]: 14.2 months | Median PFS [2]: 1.8 months | Median OS [3]: 12.7 months | Median PFS [3]: 1.7 months | Median OS [4]: 13.3 months | Median PFS [4]: 2.5 months | Median OS [5]: 18.7 months | Median PFS [5]: 5.5 months | association of tissue TMB with efficacy (OAK study): associated with improved efficacy
